Measured values published in ChEMBL document CHEMBL5120927, “LEGO-Lipophosphonoxins: A Novel Approach in Designing Membrane Targeting Antimicrobials” (J Med Chem, 2022).

What was measured:
[1] = test system: Staphylococcus aureus; assay: Antibacterial activity against […] Staphylococcus aureus 4463/A assessed as reduction in microbial growth incubated for 24 hrs by microdilution assay; assay type: functional
[2] = test system: Staphylococcus aureus; assay: Antibacterial activity against wild type Staphylococcus aureus 4904/C assessed as reduction in microbial growth incubated for 24 hrs by microdilution assay; assay type: functional
[3] = test system: Staphylococcus aureus; assay: Antibacterial activity against wild type Staphylococcus aureus 4883/C assessed as reduction in microbial growth incubated for 24 hrs by microdilution assay; assay type: functional
[4] = test system: Staphylococcus aureus; assay: Antibacterial activity against wild type Staphylococcus aureus 4504/A assessed as reduction in microbial growth incubated for 24 hrs by microdilution assay; assay type: functional
[5] = test system: Staphylococcus aureus; assay: Antibacterial activity against wild type Staphylococcus aureus 4740/B assessed as reduction in microbial growth incubated for 24 hrs by microdilution assay; assay type: functional
[6] = test system: Staphylococcus aureus; assay: Antibacterial activity against wild type Staphylococcus aureus 5079/C assessed as reduction in microbial growth incubated for 24 hrs by microdilution assay; assay type: functional
[7] = test system: Staphylococcus aureus; assay: Antibacterial activity against wild type Staphylococcus aureus 4561/A assessed as reduction in microbial growth incubated for 24 hrs by microdilution assay; assay type: functional
[8] = test system: Staphylococcus aureus; assay: Antibacterial activity against wild type Staphylococcus aureus 4968/C assessed as reduction in microbial growth incubated for 24 hrs by microdilution assay; assay type: functional
[9] = test system: Cell membrane; assay: Induction of membrane permeabilization in Escherichia coli CCM 3954 assessed as propidium iodide influx measured after 80 mins by spectrofluorometer method; settings: dose 2.5-5 mg/L, DDE = dose-dependent effect
[10] = Toxicity in human epidermis model assessed as skin irritation incubated for 42 hrs; assay type: tissue-based
[11] = Toxicity in human cornea epidermis model assessed as tissue viability pretreated for 1 hr and measured after 42 hrs by MTT assay relative to control; assay type: tissue-based; settings: read-out: Activity
[12] = Toxicity in rabbit assessed as skin irritation at 100 to 200 mg/L after administration bandaged for 4 hrs and measured after 1 to 72 hrs of contact time; set-up: species or system Oryctolagus cuniculus; settings: in vivo, topical_or_ocular, dose lower 100 mg/L, time lower 1 hrs, dose upper 200 mg/L, time upper 76 hrs
[13] = test system: Escherichia coli; assay: Antibacterial activity against Escherichia coli CCM 3954 assessed as time to reduce microbial population at 2 mg/L measured by time-kill assay; assay type: functional

Question: Which MIC [1] does the source give for CCCCCCCCOP(=O)(CCN(CCCN)CCCN)OCCCCCCOP(=O)(CCN(CCCN)CCCN)OCCCCCCCC.Cl.Cl.Cl.Cl.Cl.Cl (stereo not drawn) here?
Answer: Its MIC is 1 µg/mL.

Question: What about the MIC [2] of the same compound?
Answer: Its MIC is 0.5 µg/mL.

Question: And the MIC [3]?
Answer: The MIC was 1 µg/mL.

Question: And the MIC [4]?
Answer: Its MIC is 0.5 µg/mL.

Question: What about the MIC [5] of the same compound?
Answer: Its MIC is 0.5 µg/mL.

Question: What about the MIC [6] of the same compound?
Answer: The MIC was 0.5 µg/mL.

Question: What about the MIC [7] of the same compound?
Answer: The MIC was 0.5 µg/mL.

Question: And the MIC [8]?
Answer: Its MIC is 1 µg/mL.

Question: And the Activity [9]?
Answer: Its Activity is “Dde”.

Question: What about the Activity [10] of the same compound?
Answer: The Activity was “Non-Toxic”.

Question: And the viability at 42 h [11]?
Answer: Its viability at 42 h is > 60%.

Question: What about the Activity [12] of the same compound?
Answer: The Activity was “Non-Toxic”.

Question: What about the Time [13] of the same compound?
Answer: The Time was 12 h.
